Experiments:
RIPK1 kinase = target: T1, RIPK1 kinase (Homo sapiens, UniProt Q13546); test: In vitro RIPK1 kinase activity IC50 assay (ADP-Glo); format: biochemical; settings: ATP 10 μM; MBP substrate 100 μg/mL; 8 concentration points; read-out: IC50 range of compounds for RIPK1 kinase activity
T1 construct: purchased Promega VA7593
T1 sequence (Q13546 1-671): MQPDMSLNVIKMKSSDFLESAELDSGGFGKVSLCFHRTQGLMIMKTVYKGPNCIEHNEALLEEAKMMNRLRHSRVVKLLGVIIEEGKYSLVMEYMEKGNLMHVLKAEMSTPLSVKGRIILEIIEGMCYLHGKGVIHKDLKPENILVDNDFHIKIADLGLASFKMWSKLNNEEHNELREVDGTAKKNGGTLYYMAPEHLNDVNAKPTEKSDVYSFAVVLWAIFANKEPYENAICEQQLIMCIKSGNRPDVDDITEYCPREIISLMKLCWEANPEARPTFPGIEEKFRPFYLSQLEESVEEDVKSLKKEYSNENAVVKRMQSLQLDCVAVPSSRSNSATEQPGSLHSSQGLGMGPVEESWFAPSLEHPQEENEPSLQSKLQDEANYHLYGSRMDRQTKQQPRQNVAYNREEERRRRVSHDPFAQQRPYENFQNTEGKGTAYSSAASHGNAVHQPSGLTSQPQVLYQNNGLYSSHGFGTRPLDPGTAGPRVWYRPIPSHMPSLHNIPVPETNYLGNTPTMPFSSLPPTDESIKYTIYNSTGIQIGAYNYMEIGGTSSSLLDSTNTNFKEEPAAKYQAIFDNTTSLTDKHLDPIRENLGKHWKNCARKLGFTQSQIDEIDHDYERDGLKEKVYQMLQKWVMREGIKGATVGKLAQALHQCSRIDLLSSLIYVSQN
Protocol: RIPK1 kinase activity was assayed using the ADP-Glo assay and RIPK1 kinase reaction system (Promega, catalog number: VA7593). The RIPK1 kinase activity assay was performed according to the Promega kit manual.
The experimental method was briefly described as below. The concentration of RIPK1 kinase in the RIPK1 kinase reaction system was determined by kinase titration and S/B10. The compound was diluted with 1× kinase buffer D (1% DMSO), 1 μL of 1 mM compound DMSO stock solution was added to 19 μL 1× kinase buffer D, and the compound was serially diluted with 1× kinase buffer D at a ratio of 1:5, for a total of 8 concentration points, and a control with the same DMSO volume was set. RIPK1 kinase was diluted with 1× kinase buffer D. 2.5×ATP/substrate was diluted with 1× kinase buffer D. The final concentration of ATP in the kinase reaction system was 10 μM. The final concentration of MBP substrate was 100 μg/mL. 1 μL of diluted compound and 2 μL of diluted RIPK1 kinase were mixed, incubated at room temperature for 15 minutes, 2 μL of 2.5×ATP/substrate was added, mixed, and incubated at room temperature for 1 hour. 5 μL ADP-Glo reagent was added to each well and incubated at room temperature for 1 hour. 10 μL ADP detection reagent was added to each well and incubated at room temperature for another 0.5-1 hour. The chemiluminescent signal was read with a microplate reader and the kinase activity inhibition rate was calculated. IC50 was obtained by fitting the nonlinear regression curve log [inhibitor] vs. response-variable slope (four parameters) in GraphPad Prism.

U937 cells = test: EC50 of necroptosis inhibition in U937 cells (TSZ-induced, CellTiter-Glo); format: cell-based; settings: Homo sapiens, U-937; TSZ (hTNF-α, SM-164, Z-VAD-FMK) 20 hours; 10 concentration points; read-out: EC50 intervals of necroptosis inhibition in U937 cells
How it was run: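 U937 cells pretreated 15 min with compound (10-point, 1:3 series), then necroptosis induced by TSZ (hTNF-α, SM-164, Z-VAD-FMK) for 20 h at 37 °C. Viability measured as ATP by CellTiter-Glo luminescence; inhibition normalised to untreated and TSZ-only wells, EC50 from four-parameter fit.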

IC50 (RIPK1 kinase) [nM]	SMILES	EC50 (U937 cells) [nM]
< 100	CN1C(=O)[C@@H](NC(=O)C(=O)NCc2cccc(F)c2)COc2ccc(C#CCCO)cc21 [Example 39, (S)—N^1-(3-fluorobenzyl)-N^2-(7-(4-hydroxybut-1-yn-1-yl)-5-methyl-4-oxo-2,3,4,5-tetrahydrobenzo[b][1,4]oxazepin-3-yl)oxalamide]	100 to 500
< 100	CN1C(=O)[C@@H](NC(=O)C(=O)NCc2ccc(F)cc2)COc2ccc(C#CCCO)cc21 [Example 40, (S)—N^1-(4-fluorobenzyl)-N^2-(7-(4-hydroxybut-1-yn-1-yl)-5-methyl-4-oxo-2,3,4,5-tetrahydrobenzo[b][1,4]oxazepin-3-yl)oxalamide]	< 100
< 100	CN1C(=O)[C@@H](NC(=O)C(=O)NCCc2cccc(F)c2)COc2ccc(C#CC(C)(C)O)cc21 [Example 42, (S)—N^1-(3-fluorophenethyl)-N^2-(7-(3-hydroxy-3-methylbut-1-yn-1-yl)-5-methyl-4-oxo-2,3,4,5-tetrahydrobenzo[b][1,4]oxazepin-3-yl)oxalamide]	< 100
< 100	CN1C(=O)[C@@H](NC(=O)C(=O)NCCc2ccccc2)COc2ccc(C#CC3(O)COC3)cc21 [Example 43, (S)—N^1-(7-((3-hydroxyoxetan-3-yl)ethynyl)-5-methyl-4-oxo-2,3,4,5-tetrahydrobenzo[b][1,4]oxazepin-3-yl)-N^2-phenethyloxalamide]	< 100
< 100	CN1C(=O)[C@@H](NC(=O)C(=O)NCCc2ccccc2)COc2ccc(C#CC3(O)CCCCC3)cc21 [Example 44, (S)—N^1-(7-((1-hydroxycyclohexyl)ethynyl)-5-methyl-4-oxo-2,3,4,5-tetrahydrobenzo[b][1,4]oxazepin-3-yl)-N^2-phenethyloxalamide]	< 100
< 100	C/C(C#Cc1ccc2c(c1)N(C)C(=O)[C@@H](NC(=O)C(=O)NCCc1ccccc1)CO2)=C/CO [Example 45, (S,Z)-N^1-(7-(5-hydroxy-3-methylpent-3-en-1-yn-1-yl)-5-methyl-4-oxo-2,3,4,5-tetrahydrobenzo[b][1,4]oxazepin-3-yl)-N^2-phenethyloxalamide]	< 100
< 100	CN1C(=O)[C@@H](NC(=O)C(=O)NCCc2ccccc2)COc2ccc(C#CCN3CCC(O)C3)cc21 (stereo partly drawn) [Example 46, N^1-((3S)-7-(3-(3-hydroxypyrrolidin-1-yl)prop-1-yn-1-yl)-5-methyl-4-oxo-2,3,4,5-tetrahydrobenzo[b][1,4]oxazepin-3-yl)-N^2-phenethyloxalamide]	< 100
< 100	CN1C(=O)[C@@H](NC(=O)C(=O)NCCc2ccccc2)COc2ccc(C#CCN3CCC(=O)CC3)cc21 [Example 47, (S)—N^1-(5-methyl-4-oxo-7-(3-(4-oxopiperidin-1-yl)prop-1-yn-1-yl)-2,3,4,5-tetrahydrobenzo[b][1,4]oxazepin-3-yl)-N^2-phenethyloxalamide]	< 100
< 100	CN1C(=O)[C@@H](NC(=O)C(=O)NCCc2ccccc2)COc2ccc(C#CCN3CCOCC3)cc21 [Example 48, (S)—N^1-(5-methyl-7-(3-morpholinoprop-1-yn-1-yl)-4-oxo-2,3,4,5-tetrahydrobenzo[b][1,4]oxazepin-3-yl)-N^2-phenethyloxalamide]	< 100
< 100	CN1C(=O)[C@@H](NC(=O)C(=O)NCCc2ccccc2)COc2ccc(C#CCCN)cc21 [Example 50, (S)—N^1-(7-(4-aminobut-1-yn-1-yl)-5-methyl-4-oxo-2,3,4,5-tetrahydrobenzo[b][1,4]oxazepin-3-yl)-N^2-phenethyloxalamide]	< 100
< 100	CN1C(=O)[C@@H](NC(=O)C(=O)NCCc2ccccc2)COc2ccc(C#CCCNS(C)(=O)=O)cc21 [Example 51, (S)—N^1-(5-methyl-7-(4-(methylsulfonamido)but-1-yn-1-yl)-4-oxo-2,3,4,5-tetrahydrobenzo[b][1,4]oxazepin-3-yl)-N^2-phenethyloxalamide]	< 100
< 100	COCC#Cc1ccc2c(c1)N(C)C(=O)[C@@H](NC(=O)C(=O)NCCc1ccccc1)CO2 [Example 52, (S)—N^1-(7-(3-methoxyprop-1-yn-1-yl)-5-methyl-4-oxo-2,3,4,5-tetrahydrobenzo[b][1,4]oxazepin-3-yl)-N^2-phenethyloxalamide]	< 100
< 100	CN1C(=O)C(NC(=O)C(=O)NCCc2ccccc2)CCc2ccc(Br)cc21 (centres unmarked) [Example 61, N^1-(8-bromo-1-methyl-2-oxo-2,3,4,5-tetrahydro-1H-benzo[b]azepin-3-yl)-N^2-phenethyloxalamide]	< 100
< 100	CN1C(=O)C(NC(=O)C(=O)NCCc2ccccc2)CCc2ccc(C#CC3CC3)cc21 (centres unmarked) [Example 62, N^1-(8-(cyclopropylethynyl)-1-methyl-2-oxo-2,3,4,5-tetrahydro-1H-benzo[b]azepin-3-yl)-N^2-phenethyloxalamide]	< 100
< 100	CN1C(=O)C(NC(=O)C(=O)NCCc2ccccc2)CCc2ccc(C#CCCO)cc21 (centres unmarked) [Example 65, N^1-(8-(4-hydroxybut-1-yn-1-yl)-1-methyl-2-oxo-2,3,4,5-tetrahydro-1H-benzo[b]azepin-3-yl)-N^2-phenethyloxalamide]	< 100
< 100	CN1C(=O)C(NC(=O)C(=O)NCCc2ccccc2)CCc2ccc(C#CC3CCNCC3)cc21 (centres unmarked) [Example 66, N^1-(1-methyl-2-oxo-8-(piperidin-4-ylethynyl)-2,3,4,5-tetrahydro-1H-benzo[b]azepin-3-yl)-N^2-phenethyloxalamide]	< 100
< 100	CN1C(=O)[C@@H](NC(=O)C(=O)NCCc2ccccc2)COc2ccc(C#CC3CCN(CC#N)CC3)cc21 [Example 74, (S)—N^1-(7-((1-(cyanomethyl)piperidin-4-yl)ethynyl)-5-methyl-4-oxo-2,3,4,5-tetrahydrobenzo[b][1, 4]oxazepin-3-yl)-N^2-phenethyloxalamide]	< 100
< 100	CN1C(=O)[C@@H](NC(=O)C(=O)NCCc2ccccc2)COc2ccc(C#CC3COC3)cc21 [Example 76, (S)—N^1-(5-methyl-7-(oxetan-3-ylethynyl)-4-oxo-2,3,4,5-tetrahydrobenzo[b][1,4]oxazepin-3-yl)-N^2-phenethyloxalamide]	< 100
< 100	CN1C(=O)[C@H](NC(=O)C(=O)NCCc2ccccc2)COc2ccc(C#CC3(O)COC3)cc21 [Example 77, (R)—N^1-(7-((3-hydroxyoxetan-3-yl)ethynyl)-5-methyl-4-oxo-2,3,4,5-tetrahydrobenzo[b][1,4]oxazepin-3-yl)-N^2-phenethyloxalamide]	< 100
< 100	COC1(C#Cc2ccc3c(c2)N(C)C(=O)[C@@H](NC(=O)C(=O)NCCc2ccccc2)CO3)COC1 [Example 78, (S)—N^1-(7-((3-methoxyoxetan-3-yl)ethynyl)-5-methyl-4-oxo-2,3,4,5-tetrahydrobenzo[b][1,4]oxazepin-3-yl)-N^2-phenethyloxalamide]	< 100
< 100	CN1C(=O)[C@@H](NC(=O)C(=O)NCCc2ccccc2)COc2ccc(C#CCC3(O)COC3)cc21 [Example 79, (S)—N^1-(7-(3-(3-hydroxyoxetan-3-yl)prop-1-yn-1-yl)-5-methyl-4-oxo-2,3,4,5-tetrahydrobenzo[b][1,4]oxazepin-3-yl)-N^2-phenethyloxalamide]	< 100
< 100	CN1C(=O)[C@@H](NC(=O)C(=O)NCCc2ccccc2)COc2ccc(C#CC3(O)CCOC3)cc21 (stereo partly drawn) [Example 80, N^1-((3S)-7-((3-hydroxytetrahydrofuran-3-yl)ethynyl)-5-methyl-4-oxo-2,3,4,5-tetrahydrobenzo[b][1,4]oxazepin-3-yl)-N^2-phenethyloxalamide]	< 100

Reference: patent US20250368633A1, “AZEPINE FUSED RING COMPOUND AS RIPK1 INHIBITOR AND USE THEREOF” (ARTIVILA BIOPHARMA, priority 2022, published 2025)
